In data set [1] the test system is RBL-2H3. The data set is described as follows: Inhibition of rat RBL2H3 […] assessed as reduction of beta hexasaminidase release. The class given is functional, cell-based.
A short description of data set [2]: Toxicity in rat RBL2H3 cells. Particulars: read-out: MTD. The class given is cell-based, RBL-2H3.
The subject of data set [3] is RBL-2H3. The data set can be described thus: Inhibition of rat RBL2H3 […] assessed as reduction of beta hexasaminidase release at 10 uM. The class given is functional.
Data set [4] concerns RBL-2H3. The data set can be described thus: Inhibition of rat RBL2H3 […] assessed as reduction of beta hexasaminidase release at 25 uM. The class given is functional.

In ChEMBL document CHEMBL1165854, “Computational screening for membrane-directed inhibitors of mast cell activation” (Eur J Med Chem, 2010) one finds IC50, MNTC and inhibition data, which are given here for nine compounds.

For the compound `CCCCCCCCCCCCCCCCSCC(COC)COP(=O)([O-])OCC[N+](C)(C)C` (stereo not drawn) [ILMOFOSINE], the IC50 with RBL-2H3 [1] amounted to 6.4 µM. The MNTC in data set [2] was 50 µM. Also, the inhibition at 10 µM with RBL-2H3 [3] turned out to be 84%.
`CCCCCCCCCCCCCCCCOP(=O)([O-])OC1CC2CCC(C1)[N+]2(C)C` (stereo not drawn): in the data set on RBL-2H3 [1], the IC50 worked out at 5.7 µM. For the same compound, the MNTC in data set [2] amounted to 25 µM. The inhibition at 10 µM in the data set with RBL-2H3 [3] was 82%.
In the case of `CCCCCCCCCCCCCCCCOP(=O)([O-])OCC[N+](C)(CC)CC`, the IC50 with RBL-2H3 [1] was 4.4 µM. In addition, the MNTC in data set [2] amounted to 50 µM. Further, in the data set on RBL-2H3 [3], the inhibition at 10 µM came out at 88%.
In the case of `CCCCCCCCCCCCCCCCNc1c2c(nc3c(C)cc(C)cc13)CC(C)(C)CC2=O`, in the data set on RBL-2H3 [4], the inhibition at 25 µM was 7%.
With `CCCCCCCCCCCCCCCCCCOP(=O)([O-])OC1CC[N+](C)(C)CC1` [PERIFOSINE], in the data set on RBL-2H3 [1], the IC50 is 5 µM. Further, the MNTC in data set [2] came to 25 µM. Also, the inhibition at 10 µM in the data set with RBL-2H3 [3] amounted to 88%.
`CCCCCCCCCCCCCCCCCC(=O)Nc1c(C)c(CC)nc2ccccc12`: the inhibition at 25 µM in the data set on RBL-2H3 [4] came out at 10%.
Turning to `CCCCCCCCCCCCCCCCCCOC[C@H](COP(=O)([O-])OCC[N+](C)(C)C)OC` [(R)-EDELFOSINE], the IC50 in the data set with RBL-2H3 [1] came out at 7.1 µM. In data set [2], the MNTC turned out to be 25 µM. Moreover, the inhibition at 25 µM in the data set on RBL-2H3 [4] was 79%.
Turning to `CCCCCCCCCCCCCCCCOP(=O)([O-])OCC[N+](C)(C)C` [MILTEFOSINE], the half-inhibitory concentration (IC50) with RBL-2H3 [1] is 4.6 µM. Besides, the MNTC in data set [2] came to 25 µM. In addition, the inhibition at 10 µM with RBL-2H3 [3] was determined as 87%.
For the compound `CCCCCCCCCCCCCCCCOC(=O)C[n+]1csc(CCO)c1C`, in the data set on RBL-2H3 [1], the IC50 came to 5.5 µM. The MNTC in data set [2] was determined as 50 µM. Further, the inhibition at 25 µM in the data set on RBL-2H3 [4] is 93%.

The term IC50 denotes the concentration that inhibits the measured activity by half. The term inhibition denotes the change of the read-out against control, counted positive when it falls.
